{"source": "patent US20240181049A1", "about": "“HARNESSING THE POWER OF MICROBIOTA AND METABOLITES FOR THE TREATMENT OF CANCER” (UTI LIMITED PARTNERSHIP, priority 2019, published 2024)", "key": {"[1]": {"system": "A2AR-deficient CD4^+ T cells", "assay": "A2AR-deficient naive CD4+ T cells with anti-CD3/anti-CD28 coated beads", "format": "cell-based, mice", "description": "FIG. 16A-16J: Context dependent effect of inosine on Th1 T cell differentiation. (a) Naïve CD4^+ T cells were co-cultured with bone marrow derived dendritic cells without IFN-γ. Quantification of T-bet^+CD3e^+CD4^+ T cells 48 hours after co-culture in the presence or absence of inosine and anti-CTLA-4, as indicated. (b) Naïve CD4^+ T cells were cultured anti-CD3/anti-CD28 coated beads at a ratio of 1:1 without IFN-γ for 48 hours. Representative plot and quantification of IL12Rβ2 surface expression on CD4^+ T cells in the presence or absence of inosine (left and right panel). (c) Quantification of T-bet^+CD3e^+CD4^+ T cells 48 hours after co-culture in the presence or absence of inosine, db-cAMP and anti-CTLA-4 as indicated. […] Quantification of T-bet^+CD3e^+CD4^+ T cells 48 hours after co-culture in the presence or absence of inosine or db-cAMP (e) Representative plot and quantification (left and right panel) of pCREB expression of anti-CD3/anti-CD28 bead co-cultured CD4^+ T cells in the presence or absence of inosine or db-cAMP 1 hour after stimulation. […] Il12rb2 and Ifng gene transcripts (normalized to Gapdh) were evaluated 24 and 48 hours following inosine (1 mM) stimulation. […] Analysis through quantitative PCR assay (h) Naïve CD4^+ T cells were cultured with anti-CD3/anti-CD28 coated beads at a ratio of 1:1 without IFN-γ for 24 hours. […]"}, "MC38-OVA cells": {"system": "MC38-OVA cells", "assay": "T cell-mediated killing of inosine-pretreated MC38-OVA cells", "format": "cell-based", "conditions": "pretreatment of tumor cells prior to co-culture with activated tumor-specific T cells", "description": "FIG. 17A-17B. […] (a) MC38 tumor cells were treated with the indicated doses of inosine in vitro for 72 hours. Cell death and survival was assessed through flow cytometry. (b) MC38 tumor cells expressing full length ovalbumin (MC38-OVA) were treated with the indicated doses of inosine in vitro for 72 hours. In parallel, OVA-specific naïve CD4 and CD8 T cells from spleens of OT-II and OT-I mice, respectively, were activated with anti-CD3/anti-CD28 beads and rmIL-2 (20 IU/ml) for 72 hours. Inosine was then washed away from conditioned MC38-OVA cells and fresh medium together with activated T cells were added (100,000 MC38-OVA cells+25,000 CD4 cells+25,000 CD8 cells). 72 hours later, cell death and survival of MC38-OVA cells was assessed through flow cytometry. Grey and black dash-dotted lines indicate MC38-OVA cell viability and death when co-cultured with naïve OVA-specific CD4 and CD8 T cells. Data are mean±SEM and pooled from two individual experiments. n=6 biological replicates/condition. #, & P<0.05, **, P<0.01; (**=0.0001 vs 10 mM, #0.001 vs 10 mM and & 1 vs 10 mM)"}, "MC38 tumor cells": {"system": "MC38 tumor cells", "assay": "MC38 tumors in GF Rag1-deficient mice receiving WT or A2AR-deficient T cells, inosine + anti-CTLA-4 + CpG", "format": "in vivo", "conditions": "WT vs A2AR-deficient T cells", "description": "FIG. 5A-5L: Inosine promotes Th1 activation and anti-tumor immunity. (a) Schematic overview of experimental setup to assess the effect of inosine on Th1 activation in vivo. (b, c) Representative dot plots and quantification (left and right panel respectively) of T-bet^+IFN-γ^+CD3ε^+ (b) CD8^+ or (c) CD4^+ T cells in the MLN. (d) Schematic overview of experimental setup to assess the effect of inosine on anti-tumor immunity. Upon palpable tumors, mice were treated with 100 μg anti-CTLA-4 i.p. (5 times every 72 hours) and in some groups 20 μg CpG i.p. (5 times every 72 hours). In addition, inosine (300 mg/KG/BW) or PBS was given daily orally (O), through gavage or systemically (S) through i.p. injection. (e) Tumor weight and quantification of IFN-γ^+ cells amongst (f) CD4^+ or (g) CD8^+ cells are shown. (h). Schematic overview to assess the requirement of A2AR signaling for inosine-induced anti-tumor immunity. 1×10^6 MC38 cells (s.c.) and WT or A2AR-deficient 1×10^7 T cells (i.v. 6×10^6 CD4^+ and 4×10^6 CD8^+ cells) were injected. Upon palpable tumors, mice were treated with 100 μg anti-CTLA-4, 20 μg CpG (4 times every 72 hours, both i.p.) and inosine (daily, 300 mg/KG/BW, through gavage). (i) Pictures of tumors are shown at day 20. scale bars: 1 cm. (j) Tumor weight and quantification of IFN-γ^+ in (k) CD8^+ or (l) CD4^+ cells in the tumor are shown. Data are mean±SEM and pooled from two individual experiments (a-l) 10-11 mice/group. *, P<0.05; **, P<0.01; ***, P<0.001.\nTo evaluate the effect of inosine on Th1 activation, mice received 30 μg CpG, […] EndoFit Ovalbumin (both Invivogen) and 2 μg OVA323-339 (Sigma) i.p. and 24 hours later mice received 300 mg/kg/BW inosine or PBS as a control through i.p. injection. T cell differentiation was assessed 48 hours later. To assess the impact of inosine on tumor development during ICB therapy 1×10^6 cancer cells were injected subcutaneously (s.c.) in the flank of germ-free mice. […]"}}, "data": [{"smiles": "OC[C@H]1O[C@@H](n2cnc3c(O)ncnc32)[C@H](O)[C@@H]1O", "note": "[inosine]", "values": [{"measurement": "Th1 differentiation and phosphorylation of CREB", "setting": "[1]", "result": "absent"}, {"measurement": "T cell-mediated killing of tumor cells", "setting": "MC38-OVA cells", "result": "did not promote or inhibit T cell-mediated killing of tumor cells"}, {"measurement": "IFN-γ production within tumors", "setting": "MC38 tumor cells", "result": "WT but not A2AR-deficient T cells displayed increased IFN-γ production within tumors"}, {"measurement": "tumor weights", "setting": "MC38 tumor cells", "result": "only GF mice receiving WT T cells showed reduced tumor weights"}, {"measurement": "anti-CTLA-4/CpG-mediated anti-tumor immunity", "setting": "MC38 tumor cells; inosine oral", "result": "enhanced anti-CTLA-4/CpG-mediated anti-tumor immunity in animals that received WT but not A2AR-deficient T cells"}]}]}
